Laboratory results reported in patent US6737383B1, “Herbicidal oxadiazolidines” (priority 1999, dated 2004).

Legend:
giant foxtail = assay: Test B pre/postemergence giant foxtail; type: in vivo, Setaria faberii
Procedure, shortened: (§1)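 Response is a visual 0-to-10 score relative to untreated plants, where 0 means no effect and 10 means complete control, taken twelve to sixteen days after application. Treatments went onto soil at planting and onto foliage of 1- to 4-leaf plants, using a surfactant-containing non-phytotoxic solvent.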

surinam grass = assay: Test B pre/postemergence surinam grass; type: in vivo, Brachiaria decumbens
Procedure, shortened: as §1

rape = assay: Test B pre/postemergence rape; type: in vivo, Brassica napus
Procedure, shortened: as §1

wheat = assay: Test B pre/postemergence wheat; type: in vivo, Triticum aestivum
Procedure, shortened: as §1

crabgrass = assay: Test B pre/postemergence crabgrass; type: in vivo, Digitaria sanguinalis
Procedure, shortened: as §1

bamyardgrass = assay: Test B flood test barnyardgrass; type: in vivo, Echinochloa crus-galli
Procedure, shortened: (§2)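 Each value is a visual injury score relative to controls, with 10 meaning complete control and 0 no effect. Evaluation took place twelve to sixteen days after the 2-leaf-stage plants were treated and kept in the greenhouse.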

wild oat = assay: Test B pre/postemergence wild oat; type: in vivo, Avena fatua
Procedure, shortened: as §1

morningglory = assay: Test B pre/postemergence morningglory; type: in vivo, Ipomoea hederacea
Procedure, shortened: as §1

corn = assay: Test B pre/postemergence corn; type: in vivo, Zea mays
Procedure, shortened: as §1

purple nutsedge = assay: Test B pre/postemergence purple nutsedge; type: in vivo, Cyperus rotundus
Procedure, shortened: as §1

rice = assay: Test B flood test rice; type: in vivo, Oryza sativa
Procedure, shortened: as §2

sugar beet = assay: Test B pre/postemergence sugar beet; type: in vivo, Beta vulgaris
Procedure, shortened: as §1

bedstraw = assay: Test B pre/postemergence bedstraw; type: in vivo, Galium aparine
Procedure, shortened: as §1

smallflower flatsedge = assay: Test B flood test smallflower flatsedge; type: in vivo, Cyperus difformis
Procedure, shortened: as §2

pigweed = assay: Test B pre/postemergence pigweed; type: in vivo, Amaranthus retroflexus
Procedure, shortened: as §1

blackgrass = assay: Test B pre/postemergence blackgrass; type: in vivo, Alopecurus myosuroides
Procedure, shortened: as §1

[1] = Preemergence, Rate 62 g/ha, scale of 0 to 10 where 0 is no effect and 10 is complete control
[2] = Preemergence, Rate 125 g/ha, 0 is no effect, 10 is complete control
[3] = Preemergence, Rate 250 g/ha, scale 0 to 10, 0 is no effect, 10 is complete control
[4] = Preemergence, Rate 500 g/ha, scale of 0 to 10 where 0 is no effect and 10 is complete control
[5] = Rate 62 g/ha, Postemergence, scale of 0 to 10 where 0 is no effect and 10 is complete control
[6] = Rate 125 g/ha, Postemergence, scale 0 to 10
[7] = Rate 500 g/ha, Postemergence, scale 0 to 10
[8] = Rate 62 g/ha, headed Pre-emergence (flood test species), scale 0 to 10 (0 no effect, 10 complete control)
[9] = Rate 125 g/ha, Pre-emergence, flood test species, scale 0 to 10 where 0 is no effect and 10 is complete control
[10] = Rate 250 g/ha, Pre-emergence, flood-test species, scale 0 to 10, 0 is no effect, 10 is complete control
[11] = Rate 500 g/ha, headed Pre-emergence (flood test species), scale 0 to 10 (0 no effect, 10 complete control)

SMILES: CSc1ccc(N(C(=O)n2oc(=O)n(-c3ccccc3C)c2=O)C(C)C)cc1 [Compound 205]
- Giant foxtail plant response rating (giant foxtail; [1]): 0
- Giant foxtail plant response rating (0 to 10 scale) (giant foxtail; [2]): 0
- Giant foxtail plant response rating (giant foxtail; [3]): 0
- Plant response rating, Giant foxtail (giant foxtail; [4]): 3
- Giant foxtail plant response rating (giant foxtail; [5]): 0
- Giant foxtail plant response rating (giant foxtail; [6]): 0
- Plant response rating (0 to 10; 0 is no effect, 10 is complete control), Giant foxtail (giant foxtail; Rate 250 g/ha, Postemergence): 0
- Giant foxtail plant response rating (giant foxtail; [7]): 0
- B. signalgrass plant response rating (surinam grass; [1]): 0
- B. signalgrass plant response rating (0 to 10 scale) (surinam grass; [2]): 0
- B. signalgrass plant response rating (surinam grass; [3]): 0
- Plant response rating, B. signalgrass (surinam grass; [4]): 0
- B. signalgrass plant response rating (surinam grass; [5]): 0
- B. signalgrass plant response rating (surinam grass; Rate 125 g/ha, Postemergence, scale 0 (no effect) to 10 (complete control)): 0
- Plant response rating, B. signalgrass (surinam grass; Rate 250 g/ha, Postemergence, scale 0 to 10, 0 is no effect, 10 is complete control): 0
- B. signalgrass plant response rating (surinam grass; Rate 500 g/ha, Postemergence, scale 0 to 10, 0 no effect, 10 complete control): 0
- Rape plant response rating (rape; [1]): 0
- Rape plant response rating (0 to 10 scale) (rape; [2]): 0
- Rape plant response rating (rape; [3]): 0
- Plant response rating, Rape (rape; [4]): 0
- Rape plant response rating (rape; [5]): 0
- Rape plant response rating (rape; [6]): 0
- Plant response rating (0 to 10; 0 is no effect, 10 is complete control), Rape (rape; Rate 250 g/ha, Postemergence): 0
- Rape plant response rating (rape; [7]): 0
- Wheat plant response rating (wheat; [1]): 0
- Wheat plant response rating (wheat; [3]): 0
- Plant response rating, Wheat (wheat; [4]): 0
- Wheat plant response rating (wheat; [5]): 0
- Wheat plant response rating (wheat; [6]): 0
- Plant response rating (0 to 10; 0 is no effect, 10 is complete control), Wheat (wheat; Rate 250 g/ha, Postemergence): 0
- Crabgrass plant response rating (crabgrass; [1]): 0
- Crabgrass plant response rating (0 to 10 scale) (crabgrass; [2]): 0
- Crabgrass plant response rating (crabgrass; [3]): 1
- Plant response rating, Crabgrass (crabgrass; [4]): 8
- Crabgrass plant response rating (crabgrass; [5]): 0
- Crabgrass plant response rating (crabgrass; [6]): 0
- Plant response rating (0 to 10; 0 is no effect, 10 is complete control), Crabgrass (crabgrass; Rate 250 g/ha, Postemergence): 1
- Crabgrass plant response rating (crabgrass; [7]): 1
- Barnyardgrass plant response rating (bamyardgrass; [8]): 0
- Barnyardgrass plant response rating (bamyardgrass; [9]): 0
- Barnyardgrass plant response rating (bamyardgrass; [10]): 0
- Plant response rating, Barnyardgrass (bamyardgrass; [11]): 0
- Wild oats plant response rating (wild oat; [1]): 0
- Wild oats plant response rating (wild oat; [3]): 0
- Plant response rating, Wild oats (wild oat; [4]): 0
- Wild oats plant response rating (wild oat; [5]): 0
- Wild oats plant response rating (wild oat; [6]): 0
- Plant response rating (0 to 10; 0 is no effect, 10 is complete control), Wild oats (wild oat; Rate 250 g/ha, Postemergence): 0
- Morningglory plant response rating (morningglory; [1]): 0
- Morningglory plant response rating (0 to 10 scale) (morningglory; [2]): 0
- Morningglory plant response rating (morningglory; [3]): 0
- Plant response rating, Morningglory (morningglory; [4]): 0
- Morningglory plant response rating (morningglory; [5]): 0
- Morningglory plant response rating (morningglory; [6]): 0
- Plant response rating (0 to 10; 0 is no effect, 10 is complete control), Morningglory (morningglory; Rate 250 g/ha, Postemergence): 1
- Morningglory plant response rating (morningglory; [7]): 2
- Corn plant response rating (corn; [1]): 0
- Corn plant response rating (0 to 10 scale) (corn; [2]): 0
- Corn plant response rating (corn; [3]): 0
- Plant response rating, Corn (corn; [4]): 0
- Corn plant response rating (corn; [5]): 0
- Corn plant response rating (corn; [6]): 0
- Plant response rating (0 to 10; 0 is no effect, 10 is complete control), Corn (corn; Rate 250 g/ha, Postemergence): 0
- Corn plant response rating (corn; [7]): 0
- Nutsedge plant response rating (purple nutsedge; [3]): 0
- Nutsedge plant response rating (purple nutsedge; [6]): 0
- Nutsedge plant response rating (purple nutsedge; [7]): 0
- Rice plant response rating (rice; [8]): 0
- Rice plant response rating (rice; [9]): 0
- Rice plant response rating (rice; [10]): 0
- Plant response rating, Rice (rice; [11]): 0
- Sugarbeets plant response rating (sugar beet; [1]): 0
- Sugarbeets plant response rating (0 to 10 scale) (sugar beet; [2]): 0
- Sugarbeets plant response rating (sugar beet; [3]): 0
- Plant response rating, Sugarbeets (sugar beet; [4]): 0
- Sugarbeets plant response rating (sugar beet; [5]): 0
- Sugarbeets plant response rating (sugar beet; [6]): 0
- Plant response rating (0 to 10; 0 is no effect, 10 is complete control), Sugarbeets (sugar beet; Rate 250 g/ha, Postemergence): 0
- Sugarbeets plant response rating (sugar beet; [7]): 0
- Bedstraw plant response rating (bedstraw; [1]): 0
- Bedstraw plant response rating (0 to 10 scale) (bedstraw; [2]): 0
- Bedstraw plant response rating (bedstraw; [3]): 0
- Plant response rating, Bedstraw (bedstraw; [4]): 0
- Bedstraw plant response rating (bedstraw; [5]): 0
- Bedstraw plant response rating (bedstraw; [6]): 0
- Plant response rating (0 to 10; 0 is no effect, 10 is complete control), Bedstraw (bedstraw; Rate 250 g/ha, Postemergence): 0
- Bedstraw plant response rating (bedstraw; [7]): 0
- S. Flatsedge plant response rating (smallflower flatsedge; [8]): 0
- S. Flatsedge plant response rating (smallflower flatsedge; [9]): 0
- S. Flatsedge plant response rating (smallflower flatsedge; [10]): 0
- S. Flatsedge plant response rating (smallflower flatsedge; Rate 500 g/ha, Pre-emergence, flood test species, scale 0 to 10 (0 no effect, 10 complete control)): 0
- Redroot pigweed plant response rating (pigweed; [1]): 0
- Redroot pigweed plant response rating (0 to 10 scale) (pigweed; [2]): 0
- Redroot pigweed plant response rating (pigweed; [3]): 0
- Plant response rating, Redroot pigweed (pigweed; [4]): 0
- Redroot pigweed plant response rating (pigweed; [5]): 0
- Redroot pigweed plant response rating (pigweed; [6]): 0
- Plant response rating (0 to 10; 0 is no effect, 10 is complete control), Redroot pigweed (pigweed; Rate 250 g/ha, Postemergence): 0
- Redroot pigweed plant response rating (pigweed; [7]): 0
- Blackgrass plant response rating (blackgrass; [1]): 0
- Blackgrass plant response rating (0 to 10 scale) (blackgrass; [2]): 0
- Blackgrass plant response rating (blackgrass; [3]): 0
- Plant response rating, Blackgrass (blackgrass; [4]): 0
- Blackgrass plant response rating (blackgrass; [5]): 0
- Blackgrass plant response rating (blackgrass; [6]): 0
- Plant response rating (0 to 10; 0 is no effect, 10 is complete control), Blackgrass (blackgrass; Rate 250 g/ha, Postemergence): 0
- Blackgrass plant response rating (blackgrass; [7]): 0
